According to ChEMBL document CHEMBL5050844 (2019):

How the values were obtained:
[1] = Induction of anti-CD3 antibodies-stimulated human CD4+ T cell activation at 1.11 uM assessed fold increase in CD69 expression measured by flow cytometry analysis; type: functional, T cell line; also: reference of the scale not given here
[2] = Induction of activation of human CD56+ CD3- NK cells co-cultured with human K562 cells in 1:1 ratio and assessed as increase in TNF-alpha secretion at 0.625 uM measured by ELISA assay; type: functional, Natural killer cell
B cell = experiment: Induction of anti-IgM-stimulated human CD20+ B cell activation at 10 to 1000 uM assessed as increase in CD69 expression measured as mean fluorescence intensity AUC by flow cytometry analysis; type: functional, cell-based; settings: dose 10-1000 µM
[3] = Induction of anti-CD3/CD28 antibodies-stimulated human CD4+ T cell activation at 1.11 uM assessed fold increase in CD69 expression measured by flow cytometry analysis; type: functional, T cell line
[4] = Induction of anti-CD3 antibodies-stimulated human exhausted CD4+ T cell activation assessed fold increase in CTLA4 expression measured by flow cytometry analysis; type: functional, T cell line; also: reference of the scale not given here
[5] = Induction of anti-CD3/CD28 antibodies-stimulated human T cell activation at 1.11 uM assessed fold increase in IFN-gamma secretion measured by ELISA assay; type: functional, T cell line
[6] = Induction of activation of human CD56+ CD3- NK cells co-cultured with human K562 cells in 1:1 ratio and assessed as increase in IFN-gamma secretion at 10 uM measured by ELISA assay; type: functional, Natural killer cell
[7] = Induction of activation of human CD56+ CD3- NK cells co-cultured with human K562 cells in 1:1 ratio and assessed as increase in IFN-gamma secretion at 0.625 uM measured by ELISA assay; type: functional, Natural killer cell
[8] = Induction of anti-CD3 antibodies-stimulated human T cell activation at 1 uM assessed fold increase in IL-2 secretion measured by ELISA assay; type: functional, T cell line; also: reference of the scale not given here
[9] = Induction of activation of human CD56+ CD3- NK cells co-cultured with human K562 cells in 1:1 ratio and assessed as increase in IFN-gamma secretion at 2.5 uM measured by ELISA assay; type: functional, Natural killer cell
[10] = Induction of anti-CD3 antibodies-stimulated human T cell activation at 10 uM assessed fold increase in IFN-gamma secretion measured by ELISA assay; type: functional, T cell line; also: reference of the scale not given here
[11] = Induction of anti-CD3/CD28 antibodies-stimulated human T cell activation at 10 uM assessed fold increase in GM-CSF secretion measured by ELISA assay; type: functional, T cell line
[12] = Induction of anti-CD3 antibodies-stimulated human T cell activation at 8 uM assessed fold increase in IL-2 secretion measured by ELISA assay; type: functional, T cell line; also: reference of the scale not given here
[13] = Induction of anti-CD3/CD28 antibodies-stimulated human T cell activation at 0.3 uM assessed fold increase in IL-2 secretion measured by ELISA assay; type: functional, T cell line
[14] = Induction of activation of human CD56+ CD3- NK cells co-cultured with human K562 cells in 1:1 ratio and assessed as increase in TNF-alpha secretion at 2.5 uM measured by ELISA assay; type: functional, Natural killer cell
[15] = Induction of anti-CD3/CD28 antibodies-stimulated human T cell activation at 1.11 uM assessed fold increase in GM-CSF secretion measured by ELISA assay; type: functional, T cell line
[16] = Induction of anti-CD3/CD28 antibodies-stimulated human anergic T cell activation at 10 uM assessed fold increase in IFN-gamma secretion measured by ELISA assay; type: functional, T cell line
[17] = Induction of anti-CD3 antibodies-stimulated human exhausted T cell activation assessed fold increase in IFN-gamma secretion measured by ELISA assay; type: functional, T cell line; also: reference of the scale not given here
[18] = Induction of anti-CD3/CD28 antibodies-stimulated human CD8+ T cell activation at 10 uM assessed fold increase in cell proliferation measured by flow cytometry analysis; type: functional, T cell line
[19] = Induction of anti-CD3 antibodies-stimulated human T cell activation at 1.11 uM assessed fold increase in TNF-alpha secretion measured by ELISA assay; type: functional, T cell line; also: reference of the scale not given here
[20] = Induction of anti-CD3/CD28 antibodies-stimulated human CD4+ T cell activation at 10 uM assessed fold increase in CD69 expression measured by flow cytometry analysis; type: functional, T cell line
[21] = Induction of anti-CD3 antibodies-stimulated human T cell activation at 10 uM assessed fold increase in TNF-alpha secretion measured by ELISA assay; type: functional, T cell line; also: reference of the scale not given here
[22] = Induction of anti-CD3 antibodies-stimulated human exhausted T cell activation assessed fold increase in IL-2 secretion measured by ELISA assay; type: functional, T cell line; also: reference of the scale not given here
[23] = Induction of anti-CD3 antibodies-stimulated human T cell activation at 8 uM assessed fold increase in CD25 expression measured by ELISA assay; type: functional, T cell line; also: reference of the scale not given here
[24] = Induction of anti-CD3/CD28 antibodies-stimulated human T cell activation at 1 uM assessed fold increase in IL-2 secretion measured by ELISA assay; type: functional, T cell line
[25] = Induction of allogenic human T cell activation at 10 uM assessed fold increase in cell proliferation; type: functional, T cell line
[26] = Induction of anti-CD3/CD28 antibodies-stimulated human T cell activation at 1.11 uM assessed fold increase in TNF-alpha secretion measured by ELISA assay; type: functional, T cell line
[27] = Induction of anti-CD3/CD28 antibodies-stimulated human T cell activation at 10 uM assessed fold increase in IFN-gamma secretion measured by ELISA assay; type: functional, T cell line
[28] = Induction of allogenic human T cell activation at 3 uM assessed fold increase in cell proliferation; type: functional, T cell line
[29] = Induction of anti-CD3/CD28 antibodies-stimulated human CD8+ T cell activation at 1.11 uM assessed fold increase in CD69 expression measured by flow cytometry analysis; type: functional, T cell line
[30] = Induction of anti-CD3 antibodies-stimulated human CD8+ T cell activation at 10 uM assessed fold increase in cell proliferation measured by flow cytometry analysis; type: functional, T cell line; also: reference of the scale not given here
[31] = Induction of anti-CD3/CD28 antibodies-stimulated human anergic T cell activation at 0.37 uM assessed fold increase in IFN-gamma secretion measured by ELISA assay; type: functional, T cell line
[32] = Induction of anti-CD3/CD28 antibodies-stimulated human CD4+ T cell activation at 1.11 uM assessed fold increase in cell proliferation measured by flow cytometry analysis; type: functional, T cell line
[33] = Induction of anti-CD3 antibodies-stimulated human CD4+ T cell activation at 10 uM assessed fold increase in CD69 expression measured by flow cytometry analysis; type: functional, T cell line; also: reference of the scale not given here
[34] = Induction of anti-CD3/CD28 antibodies-stimulated human T cell activation at 4 uM assessed fold increase in CD25 expression measured by ELISA assay; type: functional, T cell line
[35] = Induction of anti-CD3/CD28 antibodies-stimulated human T cell activation at 10 uM assessed fold increase in TNF-alpha secretion measured by ELISA assay; type: functional, T cell line
[36] = Induction of anti-CD3/CD28 antibodies-stimulated human CD8+ T cell activation at 10 uM assessed fold increase in CD69 expression measured by flow cytometry analysis; type: functional, T cell line
[37] = Induction of anti-CD3/CD28 antibodies-stimulated human T cell activation at 4 uM assessed fold increase in IL-2 secretion measured by ELISA assay; type: functional, T cell line

SMILES	fold change (FC) [1]	fold change (FC) [2]	AUC (B cell)	fold change (FC) [3]	fold change (FC) [4]	fold change (FC) [5]	fold change (FC) [6]	fold change (FC) [7]	fold change (FC) [8]	fold change (FC) [9]	fold change (FC) [10]	fold change (FC) [11]	fold change (FC) [12]	fold change (FC) [13]	fold change (FC) [14]	fold change (FC) [15]	fold change (FC) [16]	fold change (FC) [17]	fold change (FC) [18]	fold change (FC) [19]	also measured
C[C@H](Sc1nncn1C)c1cccc(NC(=O)c2cccc(C(F)(F)F)n2)c1	<=1.2	1.01	0.5	<=1.2	<=1.4	<=2	2.01	<=1	0.051	1.01	<=2	2.01	>=0.201	1.01	1.01	1.51	2.51	<=1.4	<=2	1.51	fold change (FC) [20]: <=1.2; fold change (FC) [21]: 1.51; fold change (FC) [22]: <=2.5; fold change (FC) [23]: >=1.001; fold change (FC) [24]: 2.51; fold change (FC) [25]: <=2; fold change (FC) [26]: 1.51; fold change (FC) [27]: <=2; fold change (FC) [28]: <=2; fold change (FC) [29]: <=1.2; fold change (FC) [30]: <=2; fold change (FC) [31]: <=2.5; fold change (FC) [32]: <=2; fold change (FC) [33]: <=1.2; fold change (FC) [34]: >=1.76; fold change (FC) [35]: 2.01; fold change (FC) [36]: <=1.2; fold change (FC) [37]: >=7.5
Cn1cnnc1CC1(c2cccc(N3Cc4c(cc(CN5CC(F)C5)cc4C(F)(F)F)C3=O)c2)COC1	>1.601	1.01	1.01	1.201	>1.61	3.01	>=5	2.01	0.151	2.01	>4	>4	>=0.201	5	2.01	2.01	>4.01	>1.61	>4	1.51	fold change (FC) [20]: 1.401; fold change (FC) [21]: 1.51; fold change (FC) [22]: <=2.5; fold change (FC) [23]: >=1.001; fold change (FC) [24]: >=7.5; fold change (FC) [25]: >3; fold change (FC) [26]: 2.01; fold change (FC) [27]: >4; fold change (FC) [28]: 2.01; fold change (FC) [29]: 1.201; fold change (FC) [30]: >4; fold change (FC) [31]: 2.51; fold change (FC) [32]: >4; fold change (FC) [33]: >1.601; fold change (FC) [34]: 1.51; fold change (FC) [35]: 2.01; fold change (FC) [36]: 1.201; fold change (FC) [37]: >=7.5
Cn1cnnc1C(F)(F)C(C)(F)c1cccc(N2Cc3c(cc(CN4CC[C@@H](F)C4)cc3C(F)(F)F)C2=O)c1 (single isomer, unassigned)	1.401	1.01	1.01	1.201	>1.61	2.01	>=5	2.01	>=0.201	2.01	<=2	>4	>=0.201	2.51	2.01	2.01	>4.01	>1.61	>4	1.51	fold change (FC) [20]: 1.401; fold change (FC) [21]: 1.51; fold change (FC) [22]: >3.01; fold change (FC) [23]: >=1.001; fold change (FC) [24]: >=7.5; fold change (FC) [25]: 2.01; fold change (FC) [26]: 2.01; fold change (FC) [27]: >4; fold change (FC) [28]: <=2; fold change (FC) [29]: 1.201; fold change (FC) [30]: >4; fold change (FC) [31]: 2.51; fold change (FC) [32]: >4; fold change (FC) [33]: >1.601; fold change (FC) [34]: 1.51; fold change (FC) [35]: 2.01; fold change (FC) [36]: 1.201; fold change (FC) [37]: >=7.5
C[C@H](c1cc2c(c(C(F)(F)F)c1)CN(c1cccc(C3(Cc4nncn4C)COC3)c1)C2=O)N1CC[C@H](F)C1	1.401	2.01	1.01	1.401	>1.61	<=2	>=5	2.01	>=0.201	2.01	>4	>4	>=0.201	5	2.01	2.01	>4.01	>1.61	>4	1.51	fold change (FC) [20]: >1.601; fold change (FC) [21]: 1.51; fold change (FC) [22]: >3.01; fold change (FC) [23]: >=1.001; fold change (FC) [24]: >=7.5; fold change (FC) [25]: >3; fold change (FC) [26]: 2.01; fold change (FC) [27]: 3.01; fold change (FC) [28]: 2.01; fold change (FC) [29]: 1.201; fold change (FC) [30]: >4; fold change (FC) [31]: 2.51; fold change (FC) [32]: >4; fold change (FC) [33]: >1.601; fold change (FC) [34]: 1.31; fold change (FC) [35]: 2.01; fold change (FC) [36]: 1.201; fold change (FC) [37]: >=7.5
